{"source": "patent US20120039850A1", "about": "“HCV Combination Therapies Comprising Pegylated Interferon, Ribavirin and Telaprevir” (Janssen Pharmaceutica NV, priority 2009, published 2012)", "key": {"[1]": {"tested_on": "genotype 1 HCV", "test": "PROVE 1 Phase 2b clinical trial: viral response (HCV RNA, Roche COBAS TaqMan assay)", "assay_type": "in vivo, human", "excerpt": "Twenty percent of those treated with telaprevir were either Hispanic (10%) or African American (10%). In the control arm, 8% of patients were Hispanic and 12% were African American. […] On average, patients were 49 years old (21-63 years range) with a mean weight of 82.1 kg (46-136 kg range).\nThe Roche COBAS TaqMan® assay was used to measure HCV RNA (LOD 10 IU/mL). For viral kinetic modeling, values reported as <10 IU/mL were replaced with 5 IU/mL.\nSeverity of fibrosis was defined by histologic assessment from each center's local pathologist.\nThe Roche COBAS TaqMan® assay was used to measure HCV RNA (limit of detection 10 IU/mL). For viral kinetic modeling, values reported as <10 IU/mL were replaced with 5 IU/mL."}, "[2]": {"tested_on": "VX-950-resistant variants of HCV", "test": "IC50 shift of VX-950-resistant variants"}, "[3]": {"set-up": "species or system human", "details": "in vivo"}, "[4]": {"details": "in vivo"}, "[5]": {"tested_on": "HCV genotype 1", "test": "Phase 1b trial (Study VX04-950-101)", "details": "subjects infected with HCV genotype 1"}, "[6]": {"tested_on": "replicon", "test": "Predicted human liver exposure relative to replicon assay IC50/IC90", "details": "dose range studied"}}, "note": "Like-named read-outs stand apart in the source and are kept apart here."}
{"smiles": "CCC[C@H](NC(=O)[C@@H]1[C@H]2CCC[C@H]2CN1C(=O)[C@@H](NC(=O)[C@@H](NC(=O)c1cnccn1)C1CCCCC1)C(C)(C)C)C(=O)C(=O)NC1CC1", "note": "[VX-950]", "values": [{"measurement": "% with SVR", "setting": "[1]", "result": 62, "unit": "%"}, {"measurement": "% with SVR", "setting": "[1]; AA (African American)", "result": 44, "unit": "%"}, {"measurement": "% with SVR", "setting": "[1]; L (Latino)", "result": 65, "unit": "%"}, {"measurement": "fold increase in IC50", "setting": "[2]", "result": "7-20 fold"}, {"measurement": "pharmacokinetics among the different racial/ethnic groups", "setting": "[3]", "result": "No differences"}, {"measurement": "oral bioavailability", "setting": "[4]", "result": "orally bioavailable"}, {"measurement": "antiviral activity", "setting": "[5]", "result": "substantial antiviral activity"}, {"measurement": "predicted average liver concentration, fold of the replicon assay IC90", "setting": "[6]", "result": "up to 57 fold"}]}
